Experimental data taken from patent US20230313146A1, “INTESTINAL EPITHELIAL CELL CULTURES” (ARDELYX, INC., priority 2017, published 2023).

How the values were obtained:
Assay type in all cases: cell-based
[1] = tested on: human distal colonic cultures; assay: Seeding media comparison in human distal colonic monolayer cultures (TEER, RNA profile); settings: thiazovivin substituted for Y-27632 in the seeding media (WENRAT)
Method: Organoids were typically grown for 7-12 days before being used to plate monolayer cultures. Organoid cultures embedded in Matrigel were broken apart in growth media and pooled in a 15 mL conical tube. The cells were centrifuged at 600×g for 3 minutes and resuspended in TrypLE Express and placed in a water bath at 37° C. for 3 minutes. The cells were then removed and pipetted up and down for 7 minutes. BM was added to quench the reaction, and the cell suspension was centrifuged at 600×g for 3 minutes, resuspended in BM, and counted.
Media conditions used for murine colon growth and differentiation were optimized for human distal colon cultures using the water-absorption phenotype characteristic of this segment. The effects of seeding and differentiation media alterations on human distal colon cultures were determined by comparing two seeding medias (WENRAT or WENRNicAST) and three differentiation medias (WENR, ENRA, and ENR). […] Murine colonic growth media (WENR) was altered by removing Wnt3a (W) to generated ENR media, or by removing Wnt3a (W) and adding A83-01 (A) (ENRA). Removal of Wnt3a and addition of A83-01 was necessary for proper differentiation of water-absorbing cultures (FIG. 9B and FIG. 8). […] However, the inclusion of Nic and SB202190 in the WENRNicAST seeding media further suppressed differentiation of secretory cells in human colonic cultures (FIG. 10). […]

[2] = tested on: K^+ absorption in mouse distal colonic cultures; assay: Mouse distal colon K+ transport screening assay
Method: Ion transport was determined by sampling the apical and basolateral chambers of the Transwell and analyzing these samples on an ion chromatography system (Thermo Fisher ICS-3000 or ICS-5000+) coupled with conductivity detectors. Chromatographic separation of cations was performed using an IonPac CS12A (Dionex) 2×250 mm analytical column with an isocratic elution using 25 mM methanesulfonic acid. Chromatographic separation of anions was performed using an IonPac AS18 (Dionex) 2×250 mm analytical column with an isocratic elution using 35 mM potassium hydroxide. Concentrations were calculated relative to a standard curve for each analyte ion based on retention time and peak area.
An assay was established to measure K^+ transport in mouse distal colonic cultures. Mouse distal colonic monolayer cultures were prepared in 96-well Transwells according to protocol and were used for assay on day 6, 7, or 8 depending on the TEER value of the culture and its water-absorption phenotype. Wells with a TEER value below 450 Ω·cm^2 were not used for assay. […]
To start the assay, 80 μL of apical media was added to triplicate wells per compound and 130 μL of basolateral media was added to the basolateral compartment. […] K^+ and rubidium ion concentrations were determined using ion chromatography. […]

[3] = tested on: mouse duodenal, jejunal, and ileal cultures; assay: Differentiation of mouse small intestinal monolayer cultures (global gene expression PCC versus tissue, TEER)
Method: Approximately 1 μg of the entire isolated RNA was used to prepare each RNA sequencing library. RNA libraries were prepared using the TruSeq Stranded mRNA library preparation kit (Illumina). Most sequencing data were obtained using a NextSeq500 sequencer (Illumina) (2×75 bp, ˜ 30-40 million reads per sample) and some sequencing was performed using a HiSeq sequencer (Illumina) (2×125 bp, ˜ 25-30 million reads per sample). Transcript counts were obtained using the RNA Express application (RNA-Seq reads aligned with the STAR aligner) on the Illumina BaseSpace website.
Pearson correlation coefficients were determined in Microsoft Excel using the Pearson function comparing the transcript count correlation for all genes between two data sets.
On day 2, fresh W2.5ENRY was added to the cultures, and was replaced on day 4. Confluence of the culture was assessed by measuring the TEER. […]
Therefore, global gene expression by RNA sequencing was obtained for 36 culture conditions, taken 4, 6, and 8 days after seeding the cultures, and compared with the gene expression profiles of mouse jejunal villi and crypts. To simplify analysis and to account for changes in global gene expression rather than relying on a handful of marker genes, the Pearson correlation coefficient (PCC) was calculated for the relationship between the gene expression profiles of cultured cells and of mouse jejunal villus cells. […]

## O=C(NCc1ccccc1)c1csc(Nc2ccncn2)n1 [thiazovivin]
[1]
  TEER of human colonic cultures: higher TEER values
  secretory cell differentiation: some suppression of secretory cell differentiation

## [O]=[V]([O-])([O-])[O-] [vanadate]
[2]; 200 μM vanadate, mouse distal colonic cultures
  block of K^+ absorption: block K^+ absorption completely
[2]; vanadate controls, 200 μM, value of 1 = inhibition equivalent to vanadate
  Inhibition of K^+ absorption normalized to the mean value of vanadate controls (mean±SD): 1.00±0.15

B1: BMP 4: mouse BMP-4 (Peprotech), bone morphogenetic protein used as differentiation promoting factor (protein, UniProt P21275 293-408, looked up)
Bone morphogenetic protein 4: SPKHHPQRSRKKNKNCRRHSLYVDFSDVGWNDWIVAPPGYQAFYCHGDCPFPLADHLNSTNHAIVQTLVNSVNSSIPKACCVPTELSAISMLYLDEYDKVVLKNYQEMVVEGCGCR
[3]; 300 ng/mL, dose titration of individual BMPs
  correlation of gene expression of cultures with tissues in the jejunum and ileum (PCC): strong correlations of gene expression
[3]; compared with the BMP mixture (BMP 2, 4, and 7)
  effectiveness at differentiating mouse duodenal, jejunal, and ileal cultures: as effective as the BMP mixture
